The source of these data is paper PMC3111189, “Bioactive Indole Derivatives from the South Pacific Marine Sponges Rhopaloeides odorabile and Hyrtios sp” (Marine Drugs, 2011).

Structures are written as SMILES. Where “and” joins values, the source holds several entries; their conditions need not be identical. Equal values may be shown once. Read-outs that look alike come from different tables or passages of the source.

One data set deals with bee venom PLA2 (Apis mellifera, UniProt P00630). In words: biochemical.
The next data set has as its system KB cells. The experiment in a line: Cytotoxicity assay (MTS) on KB cells.
Data set [1] is described as follows: Quantitative ORAC assay (fluorescein/AAPH). The following applies: for fold less active than Trolox: ORAC assay, compared with Trolox; for ORAC FL relative ORAC value: fluorescein (FL) + AAPH, n = 3, Trolox = 1; for concentration displaying FL decay curve similar to Trolox: fluorescein fluorescence decay induced by AAPH, Figure 3.

bee venom PLA2, sequence (P00630 34-167 limits assumed): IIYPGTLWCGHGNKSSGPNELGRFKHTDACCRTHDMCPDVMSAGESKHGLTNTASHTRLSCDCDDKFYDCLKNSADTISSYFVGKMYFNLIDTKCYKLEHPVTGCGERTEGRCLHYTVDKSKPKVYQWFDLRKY
Method for KB cells: The human KB cell line was obtained from ECACC (Salisbury, UK) and grown in D-MEM medium supplemented with 10% fetal calf serum (Invitrogen), in the presence of penicillin, streptomycin and fungizone in a 75 cm^2 flask under 5% CO2. Cells were plated in 96-well tissue culture microplates at a density of 650 cells/well in 200 μL medium and treated 24 hrs later with compounds dissolved in DMSO using a Biomek 3000 automate (Beckman-Coulter). Controls received the same volume of DMSO (1% final volume).

As for `NC(=O)C(=O)c1c[nH]c2ccccc12` [Compound 1, (1H-Indol-3-yl)oxoacetamide], the IC50 at bee venom PLA2 came to 1170 ± 50 µM.
As for `COC(=O)C(=O)c1c[nH]c2ccccc12` [Compound 2, (1H-Indol-3-yl)oxoacetic acid methyl ester], the IC50 at bee venom PLA2 (n = 2, read-out: PLA2 IC50) is 1110 ± 330 µM.
The same measure, in the same setting: next, `O=Cc1c[nH]c2cc(Br)ccc12` [Compound 3, 6-Bromoindole-3-carbaldehyde]: 1270 ± 60 µM.
Turning to `C[C@H]1CC[C@H]2C(C)(C)CCC[C@]23Oc2ccc(O)cc2C[C@]13C` [Compound 4, Aureol], the IC50 at bee venom PLA2 (n = 2, read-out: PLA2 IC50) was 460 ± 20 µM. In addition, the IC50 in the data set with KB cells (Homo sapiens, KB, 72 h, read-out: KB cells IC50 (50% inhibition of cell proliferation)) was 5 µM. For the same molecule, in data set [1], the “fold less active than Trolox” value came out at 3 fold; the “ORAC FL relative ORAC value” was 0.29 relative Trolox equivalent and 0.29 ± 0.03 relative Trolox equivalent; the “concentration displaying FL decay curve similar to Trolox” value was determined as 15.5 µM.
Consider `NCCc1c[nH]c2cc(Br)c(Br)cc12` [Compound 5, 5,6-Dibromotryptamine], for which the IC50 at bee venom PLA2 (n = 2, read-out: PLA2 IC50) was 620 ± 10 µM.
Consider `CNCCc1c[nH]c2cc(Br)c(Br)cc12` [Compound 6, N-Methyl-5,6-dibromotryptamine], for which the IC50 on bee venom PLA2 (n = 2, read-out: PLA2 IC50) came out at 330 ± 30 µM.
Regarding `CN(C)CCc1c[nH]c2cc(Br)c(Br)cc12` [Compound 7, N,N-Dimethyl-5,6-dibromotryptamine], the IC50 on bee venom PLA2 (n = 2, read-out: PLA2 IC50) is 770 ± 50 µM. In data set [1], the “ORAC FL relative ORAC value” is 0.06 ± 0.01 relative Trolox equivalent.
The corresponding values for `CN[C@@H](Cc1c[nH]c2cc(Br)c(Br)cc12)C(=O)O` [Compound 8, 5,6-Dibromoabrine] are 300 ± 10 µM and 0.07 ± 0.01 relative Trolox equivalent.
As to `C[N+](C)(C)[C@@H](Cc1c[nH]c2cc(Br)c(Br)cc12)C(=O)[O-]` [Compound 9, 5,6-Dibromo-L-hypaphorine], on bee venom PLA2 (n = 2, read-out: PLA2 IC50), the IC50 is 200 ± 10 µM. For the same molecule, in the data set on KB cells (at 10^−4 M, human KB cell line), the “cytotoxicity towards KB cells” value was “did not show any cytotoxic activity”. Besides, in data set [1], the “fold less active than Trolox” value worked out at 4 fold; the “ORAC FL relative ORAC value” was 0.22 relative Trolox equivalent and 0.22 ± 0.04 relative Trolox equivalent; the “concentration displaying FL decay curve similar to Trolox” value was determined as 24.2 µM.
For the molecule `Cc1c(C)c2c(c(C)c1O)CCC(C)(C(=O)O)O2` (centres unmarked) [Trolox, reference compound], in data set [1], the “ORAC FL relative ORAC value” is given as 1 relative Trolox equivalent.
